Tests used:
[1] = Stability of Abamectin in water at various pH-values and temperatures (dark, HPLC); assay type: physicochemical
Experimental: The stability of Abamectin in water at various pH-values and temperatures was determined. 194.4 mg of abamectin was dissolved in 10 ml methanol and 1 ml of the solution transferred to 100 ml of de-mineralised water and a part of this was transferred to a buffer solution. The sample was kept in the dark and the solution analysed using a HPLC.

[2] = Stability of Abamectin in water exposed to light at various pH-values (HPLC); assay type: physicochemical; conditions: Light (5000-6000 lux)
Experimental: The stability of Abamectin in water exposed to light at various pH-values was determined. 194.4 mg of abamectin was dissolved in 10 ml methanol and 1 ml of the solution transferred to 100 ml of demineralised water and a part of this transferred to a buffer solution. The solution was exposed to light (5000-6000 lux) at 25° C. and analysed using a HPLC.

## Abamectin
[1]; pH 4.0, 25 ° C., 7 days
  Abemectin concentration (ppm): 3.130 ppm
[1]; pH 4.0, 25 ° C., 14 days
  Abemectin concentration (ppm): 2.782 ppm
[1]; pH 4.0, 25 ° C., 21 days
  Abemectin concentration (ppm): 2.566 ppm
[1]; pH 4.0, 25 ° C., 28 days
  Abemectin concentration (ppm): 2.524 ppm
[1]; pH 4.0, 25 ° C., Initial
  Abemectin concentration (ppm): 3.495 ppm
[1]; pH 4.0, 50 ° C., 7 days
  Abemectin concentration (ppm): 1.054 ppm
[1]; pH 4.0, 50 ° C., 14 days
  Abemectin concentration (ppm): 0.383 ppm
[1]; pH 4.0, 50 ° C., 21 days
  Abemectin concentration (ppm): 0.123 ppm
[1]; pH 4.0, 50 ° C., 28 days
  Abemectin concentration (ppm): 0.0609 ppm
[1]; pH 4.0, 50 ° C., Initial
  Abemectin concentration (ppm): 3.495 ppm
[1]; pH 7.0, 25 ° C., 7 days
  Abemectin concentration (ppm): 3.188 ppm
[1]; pH 7.0, 25 ° C., 14 days
  Abemectin concentration (ppm): 3.040 ppm
[1]; pH 7.0, 25 ° C., 21 days
  Abemectin concentration (ppm): 2.829 ppm
[1]; pH 7.0, 25 ° C., 28 days
  Abemectin concentration (ppm): 2.676 ppm
[1]; pH 7.0, 25 ° C., Initial
  Abemectin concentration (ppm): 3.327 ppm
[1]; pH 7.0, 50 ° C., 7 days
  Abemectin concentration (ppm): 2.952 ppm
[1]; pH 7.0, 50 ° C., 14 days
  Abemectin concentration (ppm): 2.780 ppm
[1]; pH 7.0, 50 ° C., 21 days
  Abemectin concentration (ppm): 2.194 ppm
[1]; pH 7.0, 50 ° C., 28 days
  Abemectin concentration (ppm): 1.949 ppm
[1]; pH 7.0, 50 ° C., Initial
  Abemectin concentration (ppm): 3.327 ppm
[1]; pH 9.0, 25 ° C., 7 days
  Abemectin concentration (ppm): 3.005 ppm
[1]; pH 9.0, 25 ° C., 14 days
  Abemectin concentration (ppm): 2.596 ppm
[1]; pH 9.0, 25 ° C., 21 days
  Abemectin concentration (ppm): 2.380 ppm
[1]; pH 9.0, 25 ° C., 28 days
  Abemectin concentration (ppm): 2.287 ppm
[1]; pH 9.0, 25 ° C., Initial
  Abemectin concentration (ppm): 3.555 ppm
[1]; pH 9.0, 50 ° C., 7 days
  Abemectin concentration (ppm): 1.265 ppm
[1]; pH 9.0, 50 ° C., 14 days
  Abemectin concentration (ppm): 0.519 ppm
[1]; pH 9.0, 50 ° C., 21 days
  Abemectin concentration (ppm): 0.205 ppm
[1]; pH 9.0, 50 ° C., 28 days
  Abemectin concentration (ppm): 0.0628 ppm
[1]; pH 9.0, 50 ° C., Initial
  Abemectin concentration (ppm): 3.555 ppm
[2]; pH 4.0, 25° C., 7 days
  Abemectin concentration (ppm): 2.923 ppm
[2]; pH 4.0, 25° C., 14 days
  Abemectin concentration (ppm): 2.332 ppm
[2]; pH 4.0, 25° C., 21 days
  Abemectin concentration (ppm): 1.961 ppm
[2]; pH 4.0, 25° C., 28 days
  Abemectin concentration (ppm): 1.666 ppm
[2]; pH 4.0, 25° C., Initial
  Abemectin concentration (ppm): 3.495 ppm
[2]; pH 7.0, 25° C., 7 days
  Abemectin concentration (ppm): 2.941 ppm
[2]; pH 7.0, 25° C., 14 days
  Abemectin concentration (ppm): 2.529 ppm
[2]; pH 7.0, 25° C., 21 days
  Abemectin concentration (ppm): 2.223 ppm
[2]; pH 7.0, 25° C., 28 days
  Abemectin concentration (ppm): 2.034 ppm
[2]; pH 7.0, 25° C., Initial
  Abemectin concentration (ppm): 3.327 ppm
[2]; pH 9.0, 25° C., 7 days
  Abemectin concentration (ppm): 3.163 ppm
[2]; pH 9.0, 25° C., 14 days
  Abemectin concentration (ppm): 2.810 ppm
[2]; pH 9.0, 25° C., 21 days
  Abemectin concentration (ppm): 2.360 ppm
[2]; pH 9.0, 25° C., 28 days
  Abemectin concentration (ppm): 2.173 ppm
[2]; pH 9.0, 25° C., Initial
  Abemectin concentration (ppm): 3.555 ppm

— patent US20060147485A1, “Oil-in-water formulation of avermectins” (priority 2005, published 2006)
